Results as given in ChEMBL document CHEMBL3286093 (J Med Chem, 2014).
Activity calls are given as the source filed them. The rule behind the calls is not given here.

How the values were obtained:
[1] = tested on: Trypanosoma brucei brucei; test: Antitrypanosomal activity against bloodstream Trypanosoma brucei brucei Lister 427 assessed as decrease in number of cell at G1 phase after 18 hrs by PI staining based flow cytometer; format: functional, organism-based
[2] = target: Serine/threonine-protein kinase mTOR (Homo sapiens, UniProt P42345); test: Inhibition of human recombinant mTOR assessed as inhibition of 4EBP1 phosphorylation after 30 mins by TR-FRET analysis
[3] = target: T1, Phosphatidylinositol 4,5-bisphosphate 3-kinase catalytic subunit delta isoform (Homo sapiens, UniProt O00329); test: Inhibition of human PI3K-delta assessed as inhibition of […] after 1 hr by TR-FRET analysis
T1 sequence (O00329 whole entry): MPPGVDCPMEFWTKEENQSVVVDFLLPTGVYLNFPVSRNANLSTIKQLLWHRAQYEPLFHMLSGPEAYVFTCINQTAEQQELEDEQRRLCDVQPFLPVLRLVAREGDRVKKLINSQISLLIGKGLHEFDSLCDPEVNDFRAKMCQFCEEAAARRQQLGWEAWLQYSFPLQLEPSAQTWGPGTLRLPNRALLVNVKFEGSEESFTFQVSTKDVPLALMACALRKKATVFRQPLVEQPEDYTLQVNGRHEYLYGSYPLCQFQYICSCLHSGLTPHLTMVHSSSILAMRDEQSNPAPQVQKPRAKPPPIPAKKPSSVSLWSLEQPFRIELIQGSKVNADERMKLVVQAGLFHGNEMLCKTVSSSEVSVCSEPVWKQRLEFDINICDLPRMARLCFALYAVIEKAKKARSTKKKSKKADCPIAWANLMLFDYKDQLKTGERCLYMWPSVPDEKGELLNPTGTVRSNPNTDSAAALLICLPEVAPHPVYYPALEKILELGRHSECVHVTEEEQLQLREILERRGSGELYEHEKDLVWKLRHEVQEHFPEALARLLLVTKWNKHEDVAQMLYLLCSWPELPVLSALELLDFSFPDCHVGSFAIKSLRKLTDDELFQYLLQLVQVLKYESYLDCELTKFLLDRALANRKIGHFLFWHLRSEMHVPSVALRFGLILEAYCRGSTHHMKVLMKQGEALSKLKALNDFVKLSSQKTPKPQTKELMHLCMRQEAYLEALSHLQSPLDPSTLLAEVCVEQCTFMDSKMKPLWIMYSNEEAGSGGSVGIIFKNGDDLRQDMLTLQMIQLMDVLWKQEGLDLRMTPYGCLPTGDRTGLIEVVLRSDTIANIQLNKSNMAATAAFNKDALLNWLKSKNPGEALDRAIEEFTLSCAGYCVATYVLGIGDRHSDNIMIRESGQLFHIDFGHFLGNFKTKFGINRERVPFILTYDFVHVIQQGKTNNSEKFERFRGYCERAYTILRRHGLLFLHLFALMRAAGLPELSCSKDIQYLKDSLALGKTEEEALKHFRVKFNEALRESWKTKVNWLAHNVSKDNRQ

[4] = Apparent permeability across artificial membrane after 3 hrs by HPLC analysis; format: physicochemical
[5] = target: Phosphatidylinositol 4,5-bisphosphate 3-kinase catalytic subunit alpha isoform (Homo sapiens, UniProt P42336); test: Inhibition of human PI3K-alpha assessed as inhibition of […] after 1 hr by TR-FRET analysis
Chain of Phosphatidylinositol 4,5-bisphosphate 3-kinase catalytic subunit alpha isoform (P42336 whole entry, canonical isoform): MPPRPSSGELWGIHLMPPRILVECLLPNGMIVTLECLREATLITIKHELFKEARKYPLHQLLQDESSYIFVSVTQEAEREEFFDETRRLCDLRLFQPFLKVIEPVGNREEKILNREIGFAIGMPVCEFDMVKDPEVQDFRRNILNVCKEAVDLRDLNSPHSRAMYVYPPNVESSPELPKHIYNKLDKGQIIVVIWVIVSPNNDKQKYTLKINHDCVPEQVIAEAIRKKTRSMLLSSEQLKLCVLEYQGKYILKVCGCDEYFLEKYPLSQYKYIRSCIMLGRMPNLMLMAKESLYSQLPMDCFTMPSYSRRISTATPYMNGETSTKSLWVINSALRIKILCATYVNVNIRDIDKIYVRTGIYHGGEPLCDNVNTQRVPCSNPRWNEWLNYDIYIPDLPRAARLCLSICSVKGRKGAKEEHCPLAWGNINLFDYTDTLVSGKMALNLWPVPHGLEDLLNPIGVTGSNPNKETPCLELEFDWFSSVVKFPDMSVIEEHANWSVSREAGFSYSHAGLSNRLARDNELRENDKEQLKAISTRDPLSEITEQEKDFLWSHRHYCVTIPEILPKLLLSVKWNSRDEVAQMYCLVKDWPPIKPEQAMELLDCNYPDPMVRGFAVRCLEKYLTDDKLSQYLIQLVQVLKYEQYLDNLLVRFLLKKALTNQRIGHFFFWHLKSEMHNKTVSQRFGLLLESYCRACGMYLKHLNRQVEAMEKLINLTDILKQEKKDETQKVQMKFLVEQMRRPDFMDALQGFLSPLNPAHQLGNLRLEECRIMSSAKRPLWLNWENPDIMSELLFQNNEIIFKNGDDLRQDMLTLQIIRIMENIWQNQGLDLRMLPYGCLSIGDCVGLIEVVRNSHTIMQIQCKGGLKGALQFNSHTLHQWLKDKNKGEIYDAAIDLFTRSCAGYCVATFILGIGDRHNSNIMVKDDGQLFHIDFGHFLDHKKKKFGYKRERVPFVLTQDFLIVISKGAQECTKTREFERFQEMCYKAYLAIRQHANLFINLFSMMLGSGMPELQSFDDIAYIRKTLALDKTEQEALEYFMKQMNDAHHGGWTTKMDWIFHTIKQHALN

[6] = tested on: Trypanosoma brucei brucei; test: Effect on phosphatidylcholine level in Trypanosoma brucei brucei Lister 427 at 200 nM after 12 hrs by ES-MS analysis; format: functional, organism-based
[7] = target: Phosphatidylinositol 4,5-bisphosphate 3-kinase catalytic subunit beta isoform (Homo sapiens, UniProt P42338); test: Inhibition of human PI3K-beta assessed as inhibition of […] after 1 hr by TR-FRET analysis
Chain of Phosphatidylinositol 4,5-bisphosphate 3-kinase catalytic subunit beta isoform (P42338 whole entry, canonical isoform): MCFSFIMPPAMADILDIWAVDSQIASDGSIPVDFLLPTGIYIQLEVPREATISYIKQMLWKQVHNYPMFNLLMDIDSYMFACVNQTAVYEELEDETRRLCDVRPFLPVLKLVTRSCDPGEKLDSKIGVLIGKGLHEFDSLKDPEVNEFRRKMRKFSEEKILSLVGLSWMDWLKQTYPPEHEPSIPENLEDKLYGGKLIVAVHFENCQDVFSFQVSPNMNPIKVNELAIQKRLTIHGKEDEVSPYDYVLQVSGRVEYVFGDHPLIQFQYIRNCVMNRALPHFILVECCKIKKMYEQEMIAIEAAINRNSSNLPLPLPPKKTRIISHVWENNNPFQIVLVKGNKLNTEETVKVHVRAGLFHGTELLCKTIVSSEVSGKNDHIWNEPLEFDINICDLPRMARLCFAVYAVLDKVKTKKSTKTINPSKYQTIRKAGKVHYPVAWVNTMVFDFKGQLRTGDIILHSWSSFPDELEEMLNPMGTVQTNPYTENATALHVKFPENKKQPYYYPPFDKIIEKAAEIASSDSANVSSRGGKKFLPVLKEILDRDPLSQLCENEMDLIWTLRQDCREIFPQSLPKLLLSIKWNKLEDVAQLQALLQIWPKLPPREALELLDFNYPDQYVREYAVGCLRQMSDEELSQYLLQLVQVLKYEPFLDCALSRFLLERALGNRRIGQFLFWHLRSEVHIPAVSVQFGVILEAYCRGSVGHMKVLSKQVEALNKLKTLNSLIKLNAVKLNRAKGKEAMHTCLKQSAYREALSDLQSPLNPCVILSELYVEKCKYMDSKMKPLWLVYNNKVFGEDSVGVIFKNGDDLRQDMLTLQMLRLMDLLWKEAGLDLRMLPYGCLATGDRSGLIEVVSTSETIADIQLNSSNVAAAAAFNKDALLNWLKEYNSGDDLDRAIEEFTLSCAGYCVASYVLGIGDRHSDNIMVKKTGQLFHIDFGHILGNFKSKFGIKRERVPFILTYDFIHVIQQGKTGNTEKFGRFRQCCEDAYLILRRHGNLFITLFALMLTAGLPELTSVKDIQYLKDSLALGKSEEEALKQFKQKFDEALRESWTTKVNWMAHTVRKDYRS

[8] = target: Phosphatidylinositol 4,5-bisphosphate 3-kinase catalytic subunit gamma isoform (Homo sapiens, UniProt P48736); test: Inhibition of human PI3K-gamma assessed as inhibition of […] after 1 hr by TR-FRET analysis
Chain of Phosphatidylinositol 4,5-bisphosphate 3-kinase catalytic subunit gamma isoform (P48736 whole entry, canonical isoform): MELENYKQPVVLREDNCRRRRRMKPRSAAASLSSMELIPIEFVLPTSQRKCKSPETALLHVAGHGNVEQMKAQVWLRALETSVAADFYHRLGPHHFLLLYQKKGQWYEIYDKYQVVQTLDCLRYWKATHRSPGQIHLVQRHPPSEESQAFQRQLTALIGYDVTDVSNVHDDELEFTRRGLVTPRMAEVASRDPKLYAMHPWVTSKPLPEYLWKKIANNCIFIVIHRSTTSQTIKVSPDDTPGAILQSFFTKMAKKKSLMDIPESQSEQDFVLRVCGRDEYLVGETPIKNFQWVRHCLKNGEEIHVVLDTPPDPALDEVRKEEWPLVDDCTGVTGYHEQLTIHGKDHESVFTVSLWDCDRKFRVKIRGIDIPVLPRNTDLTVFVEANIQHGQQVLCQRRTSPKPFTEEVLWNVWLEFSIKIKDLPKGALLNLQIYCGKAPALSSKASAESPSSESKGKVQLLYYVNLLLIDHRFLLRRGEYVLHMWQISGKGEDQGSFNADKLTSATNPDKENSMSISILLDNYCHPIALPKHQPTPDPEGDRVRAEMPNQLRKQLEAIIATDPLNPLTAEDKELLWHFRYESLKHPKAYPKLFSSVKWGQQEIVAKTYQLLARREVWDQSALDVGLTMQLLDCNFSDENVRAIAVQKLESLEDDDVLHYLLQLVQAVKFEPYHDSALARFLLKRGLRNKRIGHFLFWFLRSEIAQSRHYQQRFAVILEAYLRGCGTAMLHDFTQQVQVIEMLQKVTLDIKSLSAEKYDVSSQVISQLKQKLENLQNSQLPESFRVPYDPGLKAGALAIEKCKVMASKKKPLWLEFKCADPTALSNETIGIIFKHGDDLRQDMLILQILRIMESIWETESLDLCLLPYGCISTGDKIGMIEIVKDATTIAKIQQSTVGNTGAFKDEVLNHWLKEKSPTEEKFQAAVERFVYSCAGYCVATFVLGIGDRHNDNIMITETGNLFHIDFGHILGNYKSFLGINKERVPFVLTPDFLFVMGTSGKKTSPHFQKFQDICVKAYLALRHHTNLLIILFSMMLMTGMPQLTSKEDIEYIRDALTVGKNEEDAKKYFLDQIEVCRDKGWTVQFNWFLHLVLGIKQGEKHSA

[9] = tested on: Trypanosoma brucei brucei; test: Effect on sphingomylein level in Trypanosoma brucei brucei Lister 427 at 200 nM after 12 hrs by ES-MS analysis; format: functional, organism-based
[10] = Lipophilicity, log D of the compound at pH 7.4 by HPLC analysis; format: physicochemical; settings: buffer
[11] = tested on: Trypanosoma brucei brucei; test: Inhibition of receptor-mediated endocytosis in Trypanosoma brucei brucei Lister 427 assessed as decrease in transferrin uptake at 2 X EC50 after 18 hrs; format: functional, organism-based
[12] = tested on: Trypanosoma brucei brucei; test: Decrease in phosphotidyl inositol phosphate level in Trypanosoma brucei brucei Lister 427 at 200 nM after 12 hrs by ES-MS analysis; format: functional, organism-based
[13] = tested on: Trypanosoma brucei brucei; test: microbe, parasite or virus in culture; settings: Lister 427, 70 h
Description: Antitrypanosomal activity against bloodstream Trypanosoma brucei brucei Lister 427 after 70 hrs by resazurin assay

[14] = tested on: Trypanosoma brucei brucei; test: Effect on phosphotidyl inositol level in Trypanosoma brucei brucei Lister 427 at 200 nM after 12 hrs by ES-MS analysis; format: functional, organism-based
[15] = in vitro; settings: human, HepG2 cells
Description: Selectivity ratio TC50 for human HepG2 cells to EC50 for Trypanosoma brucei brucei Lister 427

[16] = Cytotoxicity against human HepG2 cells after 48 hrs by Celltiter-Glo assay; format: cell-based; settings: HepG2 cells, read-out: TC50

SMILES	EC50 [13]	selectivity ratio [15]	CC50 at 48 h [16]	other results
Cn1cc(-c2ccc3ncc4c(c3c2)n(-c2ccc(C(C)(C)C#N)cc2)c(=O)n4C)cn1	51 nM			inhibition [1]: Active; IC50 [2]: 1170 nM; IC50 [3]: 794 nM; permeability [4]: ND(Insoluble); IC50 [5]: 398 nM; Activity [6]: inactive; IC50 [7]: 7940 nM; IC50 [8]: 126 nM; Activity [9]: inactive; logD [10]: 5.3; inhibition [11]: inactive; inhibition [12]: Active; Activity [14]: Active
Cn1c(=O)n(C)c2c3cc(-c4ccncc4)ccc3ncc21	3270 nM	> 6	> 20000 nM	
CN(C)c1ccc(-n2c(=O)[nH]c3cnc4ccccc4c32)cc1	6240 nM	3	19000 nM	
Cn1c(=O)n(-c2ccc(C(C)(C)C#N)cc2)c2c3cc(N4CCOCC4)ccc3ncc21	2040 nM	> 24	> 50000 nM	
Cn1c(=O)n(-c2ccc(C(C)(C)C#N)cc2)c2c3ccccc3ncc21	624 nM	> 80	> 50000 nM	IC50 [2]: 1620 nM; IC50 [3]: 15800 nM; permeability [4]: 57 ×10⁻⁶ cm/s; IC50 [5]: 3980 nM; IC50 [7]: > 30000 nM; IC50 [8]: 2000 nM; logD [10]: 4.69
Cn1c(=O)n(-c2ccc(C(C)(C)C#N)cc2)c2c3cc(C#Cc4cccnc4)ccc3ncc21	8 nM	17.5	140 nM	
Cn1c(=O)n(-c2ccc(C(C)(C)C#N)cc2)c2c3cc(N)ccc3ncc21	10600 nM	> 4	> 50000 nM	
Cc1ccc2ncc3c(c2c1)n(-c1ccc(C(C)(C)C#N)cc1)c(=O)n3C	2020 nM	> 10	> 20000 nM	
Cn1c(=O)n(-c2ccc(C(C)(C)C#N)cc2)c2c3cc(-c4ccncc4)ccc3ncc21	136 nM	25	3430 nM	
Cn1c(=O)n(-c2ccc(C(C)(C)C#N)cc2)c2c3cc(-c4ccccc4)ccc3ncc21	159 nM	11	1820 nM	
Cc1ccc(-n2c(=O)n(C)c3cnc4ccc(-c5ccc(C(=O)O)cc5)cc4c32)cc1	9890 nM	> 5	> 50000 nM	
Cc1ccc2ncc3c(c2c1)n(-c1ccccc1)c(=O)n3C	1300 nM	> 39	> 50000 nM	
CN1CCN(c2ccc3ncc4c(c3c2)n(-c2ccc(C(C)(C)C#N)cc2)c(=O)n4C)CC1			> 50000 nM	
Cn1c(=O)n(-c2ccc(C(F)(F)F)cc2)c2c3cc(-c4cnc5ccccc5c4)ccc3ncc21	103 nM	> 240	> 25000 nM	
Cn1c(=O)n(-c2ccc(C(C)(C)C#N)cc2)c2c3cc(-c4cccnc4)ccc3ncc21	16 nM	36	575 nM	
Cn1c(=O)n(-c2ccc(C#N)cc2)c2c3cc(-c4cnc5ccccc5c4)ccc3ncc21	91 nM	> 540	> 50000 nM	
CN(C)c1ccc(-n2c(=O)n(C)c3cnc4ccccc4c32)cc1	9330 nM	0.3	3000 nM	
N#Cc1ccc(-n2c(=O)[nH]c3cnc4ccc(-c5cnc6ccccc6c5)cc4c32)cc1	184 nM	> 270	> 50000 nM	
Cn1c(=O)n(-c2ccc(CC#N)cc2)c2c3cc(-c4ccncc4)ccc3ncc21	88 nM	> 560	> 50000 nM	
CC(=O)Nc1ccc2ncc3c(c2c1)n(-c1ccc(C(C)(C)C#N)cc1)c(=O)n3C	9020 nM	> 5	> 50000 nM	
CN(C)c1ccc(-n2c(=O)n(C)c3cnc4ccc(-c5ccncc5)cc4c32)cc1	82 nM	28	2340 nM	
Cn1c(=O)n(-c2ccccc2)c2c3ccccc3ncc21	18500 nM	> 3	> 50000 nM	
Cn1c(=O)n(-c2ccc(N3CCOCC3)cc2)c2c3cc(-c4ccncc4)ccc3ncc21	316 nM	> 24	> 7600 nM	
Cn1c(=O)n(-c2ccc(C(C)(C)C#N)cc2)c2c3cc(-c4cc5ccccc5s4)ccc3ncc21	54 nM	> 460	> 25000 nM	
Cn1c(=O)n(-c2ccccc2)c2c3cc(-c4cnc5ccccc5c4)ccc3ncc21	24 nM	> 1000	> 25000 nM	
CN1CCN(Cc2ccc(-n3c(=O)n(C)c4cnc5ccc(-c6ccncc6)cc5c43)cc2)CC1	3350 nM	> 2	> 7600 nM	
N#CCc1ccc(-n2c(=O)[nH]c3cnc4ccc(-c5ccncc5)cc4c32)cc1	199 nM	> 250	> 50000 nM	
CN(C)c1ccc(-n2c(=O)[nH]c3cnc4ccc(-c5ccncc5)cc4c32)cc1	42 nM	> 1100	> 50000 nM	
Cn1c(=O)n(-c2ccc(C(C)(C)C#N)cc2)c2c3cc(-c4ccc(C(F)(F)F)nc4)ccc3ncc21	53 nM	> 470	> 25000 nM	
